What was measured:
[1] = compound: COc1cc(N2CCC(N3CCN(C)CC3)CC2)ccc1Nc1ncc(Cl)c(Nc2ccccc2S(=O)(=O)C(C)C)n1 [NVP-TAE684]; experiment: relative viability (nuclei count vs DMSO), 5 days (fraction); higher = more cells survive
Procedure, shortened: (§1)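 Nuclei counted with MetaXpress define viability as the ratio of treated to vehicle wells, given as a median across plates. The lung cancer cell lines were in 1536-well plates, pinned with five √10-spaced library-drug doses and imaged at 4× after 5 days and Hoechst staining. Plates passed with control CV below 25% and at least one doubling.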

[2] = compound: COc1cc2/c(=N/c3ccc(Br)cc3F)nc[nH]c2cc1OCC1CCN(C)CC1 [Vandetanib]; experiment: as above
Procedure, shortened: as §1

| Cell Line | relative viability ([1]; 0.2 µM) | relative viability ([1]; 0.6325 µM) | relative viability ([1]; 2 µM) | relative viability ([2]; 0.02 µM) | relative viability ([2]; 0.06325 µM) | relative viability ([2]; 0.2 µM) | relative viability ([2]; 0.6325 µM) | relative viability ([2]; 2 µM) |
| --- | --- | --- | --- | --- | --- | --- | --- | --- |
| HCC-827 | 1.09 | 1.02 | 1.04 | 1.04 | 1.02 | 1.01 | 0.31 | 0.186 |
| HOP-62 | – | 1 | 1.04 | 0.947 | 1.02 | 1.01 | 1.02 | 1.04 |
| IA-LM | 0.712 | 0.885 | 0.75 | 0.996 | 0.895 | 0.946 | 1.09 | 1.15 |
| LC-2-ad | 0.975 | 0.848 | 0.654 | 1.02 | 0.893 | 1.01 | 0.868 | 0.438 |
| LCLC-97TM1 | 0.897 | 0.735 | 0.471 | 1.05 | 0.939 | 1.01 | 1.05 | 0.832 |
| LCLC-103H | 1.08 | 0.956 | 0.938 | 0.959 | 0.92 | 1.05 | 0.899 | 0.931 |
| LK-2 | 1.09 | 0.924 | 0.356 | 0.97 | 0.969 | 0.966 | 1.06 | 0.815 |
| LOU-NH91 | 0.966 | 0.833 | 0.703 | 0.986 | 0.869 | 0.825 | 0.823 | 0.859 |
| LU99A | 0.998 | 0.942 | 0.616 | 0.839 | 0.846 | 0.92 | 0.895 | 0.951 |
| LXF-289 | 1.02 | 1.01 | 0.907 | 1.01 | 1.02 | 1.03 | 0.985 | 0.968 |
| NCI-H23 | 0.989 | 0.796 | 0.538 | 1.09 | 0.975 | 0.894 | 0.926 | 0.901 |
| NCI-H322M | 1.02 | 0.795 | 0.636 | 0.895 | 0.879 | 0.872 | 0.797 | 0.538 |
| NCI-H358 | 0.898 | 0.791 | 0.289 | 0.918 | 0.86 | 0.877 | 0.731 | 0.568 |
| NCI-H441 | 0.898 | 1.15 | 0.587 | 1.03 | 0.948 | 0.983 | 1.15 | 0.939 |
| NCI-H460 | 1.08 | 1.02 | – | 0.964 | 0.992 | 1.02 | 1 | 0.963 |
| NCI-H520 | 0.969 | 0.986 | 0.767 | 0.995 | 0.986 | 0.925 | 0.95 | 0.938 |
| NCI-H522 | 0.953 | 0.874 | 0.923 | 0.915 | 1.03 | 0.91 | 0.933 | 0.97 |
| NCI-H596 | 0.959 | 1.03 | – | 0.937 | 0.876 | 0.954 | 0.993 | 1 |
| NCI-H647 | 0.924 | 1.01 | 0.723 | 0.965 | 0.946 | 0.968 | 0.933 | 0.872 |
| NCI-H650 | 1.01 | 0.662 | 0.622 | 1.02 | 1 | 0.907 | 1.06 | 0.403 |

From the supplement of paper PMC10307832
